Source: patent publication US11192849B2, “Compounds, compositions, and methods for modulating ferroptosis and treating excitotoxic disorders” (THE TRUSTEES OF COLUMBIA UNIVERSITY IN THE CITY OF NEW YORK, priority 2013, dated 2021)

Tests used:
Calu-1 cells = test: Erastin-induced ferroptosis in Calu-1 cells, NOX pathway inhibitors; assay type: cell-based, human
Method: (§1) Cell viability was typically assessed in 384-well format by Alamar Blue (Invitrogen) fluorescence (ex/em 530/590) measured on a Victor3 platereader (Perkin Elmer, Waltham, Mass.). In some experiments, Trypan Blue dye exclusion counting was performed using an automated cell counter (ViCell, Beckman-Coulter Inc., Brea, Calif.). Cell viability in test conditions is reported as a percentage relative to the negative control treatment.

BJeLR cells = test: Erastin-induced death and ROS in BJeLR cells; assay type: cell-based, human; conditions: erastin 10 μM, 6-AN 200 μM
Method: The day before the experiment, 200,000 cells/well were seeded in 6-well dishes (Corning Inc., Corning, N.Y.). The day of the experiment, cells were treated with test compounds for the indicated times, then harvested by trypsinization, resuspended in 500 μL Hanks Balanced Salt Solution (HBSS, Gibco, Invitrogen Corp., Carlsbad, Calif.) containing either H2DCFDA (25 μM), C11-BODIPY(581/591) (2 μM) or MitoSOX (5 μM) (all from Molecular Probes, Invitrogen) and incubated for 10 minutes at 37° C. in a tissue culture incubator. Cells were then resuspended in 500 μL of fresh HBSS, strained through a […] cell strainer (BD Falcon, BD Biosciences, San Jose, Calif.), and analyzed using a flow cytometer (FACSCalibur or Accuri C6, BD Biosciences), which was equipped with 488-nm laser for excitation. Data was collected from the FL1 (H2DCFDA, C11-BODIPY) or FL2 channel (MitoSOX). A minimum of 10,000 cells were analyzed per condition.
as §1, with “treatment. […]” for “treatment.”

BJeLR and HT-1080 cells = test: Measurement of ATP levels; assay type: cell-based, human; conditions: normalized to viability
Method: ATP levels were evaluated using the ApoSENSOR ATP Assay Kit (Biovision Inc., Milpitas, Calif.) according to the manufacturer's instructions. 2000 HT-1080 or BJeLR cells were seeded in 96-well white bottom plates (Falcon). Cells were treated 12 hours later with compound as above for the TEM. Prior to luminescence measurement, medium was removed and cells were lysed and incubated with ATP Monitoring Enzyme. Luminescence was measured using a Victor3 platereader equipped with an infrared emission filter every 30 seconds for 10 minutes. Typically the first reading was used for data analysis. Parallel cell culture treatments were performed in 96-well clear bottom plates and cell viability was determined using Alamar Blue. These values were used to normalize ATP levels to cell viability.

[1] = test system: mouse kidney proximal tubules; test: Hydroxyquinoline + iron induced cell death in isolated mouse kidney proximal tubules (LDH release); assay type: cell-based; conditions: 10 μM hydroxyquinoline and ferrous ammonium sulfate, 60 min
Method: Tubule preparation: 8-12 week old C57/BL6 female mice were euthanized with isoflurane. […] The cortices were then dissected and minced on an ice cold tile, then resuspended in additional Solution A for 8-10 min. of digestion at 37° C. followed by enrichment of proximal tubules using centrifugation on self-forming Percoll gradients as previously described for rabbit tubules.
Experimental procedures for isolated tubules: Tubules were suspended at 1.5-2.0 mg tubule protein/ml in a 95% air/5% CO2-gassed medium containing (in mM) 110 NaCl, 2.6 KCl, 25 NaHCO3, 2.4 KH2PO4, 1.25 CaCl2, 1.2 MgCl2, 1.2 MgSO4, 5 glucose, 4 sodium lactate, 0.3 alanine, 5 sodium butyrate, 2 glycine, and 1.0 mg/ml bovine gelatin (75 bloom) (Solution B). After precincubation for 15 min. at 37° C., then were then resuspended in fresh Solution B containing 2 mM heptanoic acid instead of sodium butyrate along with experimental compounds.
In addition, the efficacy of Fer-1, SRS11-92, and selected analogs was tested in a model of iron-induced cell death in freshly isolated mouse kidney proximal tubules that simulates major elements of rhabdomyolysis-induced acute kidney injury (FIG. 15C). Cell death in this model is known to involve oxidative lipid damage (Sogabe, et al., 1996, Park, et al., 2011); it was therefore believed that Fer-1 might be protective. 10 μM each of hydroxyquinoline and ferrous ammonium sulfate (HQ+Fe) were used to induce cell death, which was quantified by monitoring LDH release after 60 min. […] By implication, cell death in these models may involve, at least in part, the induction of lipid peroxidation and perhaps ferroptosis.

[2] = test system: freshly isolated renal tubules; test: LDH release from hypoxic freshly isolated renal tubules; assay type: cell-based, mouse; conditions: Nec-1 50 μM, with or without glycine
Method: Six to 12 mice were used for each isolated tubule preparation, depending on the amount of material needed for particular experiments. For preparation of isolated tubules, mice were anesthetized with ketamine (100 mg/kg i.p.) and xylazine (10 mg/kg i.p.), and the kidneys were immediately removed. Type I collagenase was from Worthington Biochemical. Percoll was purchased from Amersham Biosciences. All other reagents and chemicals, including delipidated BSA, were of the highest grade available from Sigma-Aldrich. […] The cortices were then dissected and minced on an ice-cold tile and then resuspended in additional solution A for 8-10 min of digestion at 37° C., followed by enrichment of proximal tubules using centrifugation on self-forming Percoll gradients. For Nec-1 studies in renal tubules, renal cortices were dissected in ice-cold dissection solution (DS) [HBSS with 10 mmol/L glucose, 5 mmol/L glycine, 1 mmol/L alanine, 15 mmol/L Hepes (pH 7.4); osmolality, 325 mOsmol/L] and sliced into 1-mm pieces. The fragments were transferred to collagenase solution (DS with 0.1% (wt/vol) type 2 collagenase and 96 μg/mL soybean trypsin inhibitor) and digested for 30 min at 37° C. and 61×g. After digestion, the supernatant was sieved through two nylon sieves: first 250-μm pore size and then 100-μm pore size. […]

[3] = test system: HT-1080, BJeLR and Calu-1 cells; test: Modulatory profiling of cell death inhibitors against erastin; assay type: cell-based, human; conditions: erastin 10 μM, 24 hours; 10-point, 4-fold dilution series
Method: The day before the experiment, cells were seeded in black, 384-well clear bottom plates (Corning) at a density of 1,000 cells/well using a Beckman Biomek FX Workstation. All compounds (except 3-methyladenine and chloroquine, which were diluted in water) were diluted in DMSO at 250 times the final highest test concentration, and aliquoted across a 384-well plate (Greiner, Monroe, N.C.). A ten-point, 4-fold dilution series of each inhibitor in DMSO was made using a multichannel pipette. Replicates of this mother plate were stored at −20° C. […] Medium was removed from cells and replaced with 36 μL medium containing DMSO (0.1%) or erastin (10 μM final concentration). Using the Biomek FX, 4 μL were then transferred from each inhibitor daughter plate into the DMSO-containing or erastin-containing assay plates. For 3-methyladenine and chloroquine, inhibitors were prepared fresh in media at 10-fold the final concentration in the presence of DMSO or 10 μM erastin. These solutions were manually pipetted onto cells in 384-well format. Assay plates were incubated at 37° C. for 24 hours. Viability was assessed using Alamar Blue.
The modulatory effect (Me) for drug-drug interactions was computed as follows. First, plate-based background correction was performed using Alamar Blue values from empty (cell-free) wells included on each plate. Next, within each experiment, 100% viability is determined as the average Alamar Blue score for cells treated with modulator=DMSO and lethal=DMSO, and all Alamar Blue values were scaled from 0 to 1 with the DMSO×DMSO condition=1. The individual effects of each modulator and lethal (e.g. in the presence of DMSO) at all tested doses were then ascertained. […] Next, BExp was compared to the actual observed viability. […] By default, Me in DMSO-treated cells is equal to 0. […] Me values for each inhibitor-lethal drug combination were hierarchically clustered and plotted as a heatmap using the heatmaps.2 function of the gplots library in R.

SLC7A11 = SLC7A11 mRNA levels (RT-qPCR) in HT-1080 cells; assay type: cell-based, human; conditions: 6 hours
Method: RNA was extracted using the Qiashredder and Qiagen RNeasy Mini kits (Qiagen) according to the manufacturer's protocol. 2 μg total RNA for each sample was used as input for each reverse transcription reaction, performed using the TaqMan RT kit (Applied Biosystems, Life Technologies Corp., Carlsbad, Calif.). Primer pairs were designed for target transcripts using Primer Express 2.0 (Applied Biosystems). Quantitative PCR reactions were performed using the Power SYBR Green PCR Master Mix (Applied Biosystems). Triplicate samples per condition were analyzed on an Applied Biosystems 7300 qPCR instrument using absolute quantification settings. Differences in mRNA levels compared to HPRT1 or ACTB internal reference control were computed between control and experimental conditions using the ΔΔCt method.

HT-1080 cells = test: Inhibition of erastin (10 μM)-induced death in HT-1080 cells (Alamar Blue); assay type: cell-based, human; conditions: erastin-treated HT-1080 cells
Method in brief: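 HT-1080 cells (1,000/well) were treated next day with 10 μM erastin plus a compound dilution series for 24 h. Alamar Blue (10% final) was then added for 6 h and fluorescence read at ex/em 530/590.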

## NC(=O)c1ccc(N)nc1 [Compound 6-AN, 6-aminonicotinamde]
Calu-1 cells
  suppression of erastin-induced ferroptosis: strongly suppressed
BJeLR cells
  erastin-induced cell death and ROS production: prevented cell death as well as ROS production

## OO [Compound H2O2, hydrogen peroxide]
BJeLR and HT-1080 cells
  intracellular ATP: substantial depletion of intracellular ATP

## CN1C(=O)C(Cc2c[nH]c3ccccc23)NC1=S (centres unmarked) [necrostatin-1]
[1]
  HQ+Fe induced lethality (LDH release): did not show any protection
[2]
  LDH release from hypoxic renal tubules: no protection was detected
[3]
  modulation of erastin-induced death: not consistently modulated

## OCCS [β-ME, β-mercaptoethanol, reference compound]
SLC7A11
  effect on erastin/SAS-induced SLC7A11 upregulation: suppressed
HT-1080 cells
  prevention of erastin-induced death: strongly inhibited cell death
